The results in this text go back to patent publication US20260335295A1, “PHARMACEUTICAL COMPOSITION COMPRISING HTRA ACTIVATOR AS ACTIVE INGREDIENT FOR PREVENTING OR TREATING DEGENERATIVE DISEASES, AND METHOD FOR SCREENING HTRA ACTIVITY MODULATOR” (THE ASAN FOUNDATION, priority 2023, published 2026).

For test [1], the target named is T1, HTRA1 (Homo sapiens, UniProt Q92743). Nature of the test: HTRA1 activity assay with fluorogenic substrate H2-Opt (high-throughput screening). Type of test: biochemical. The protocol:
(§1) HTRA activity was identified through high-throughput screening using H2-Opt, a commercially available fluorogenic substrate.
(§2) Specifically, purified recombinant HTRA1 protein (50 ng) and a compound (final concentration of 10 μM) were added to 80 μL of an assay buffer in each well of a 96-well plate and were allowed to stand at room temperature for 30 minutes. Immediately after 20 μL of an H2-OPT solution (final concentration of 6.25 μM) was added thereto and mixed, fluorescence signals generated therefrom were measured using an MS microplate reader device manufactured by Molecular Devices. Upon measurement of the fluorescence signals in kinetic mode, excitation and emission were set to 328 nm and 393 nm, respectively, and changes in the fluorescence signals were measured at 37 °C for 3 hours at intervals of 30 seconds.
(§3) Specifically, different concentrations of E09 (0.01, 0.1, 1, 10, and 100 (M) w ere added to purified recombinant HTRA1 and HTRA2, and activities of HTRA1 and HTRA2 were measured in the same manner as the high-throughput screening of Example 1. Fluorescence signals at the end of measurement (3 hours) were measured for each concentration. Graphs obtained by measuring the fluorescence signals of HTRA1 and HTRA2 are shown in FIGS. 2 and 3.

Test [2] addresses T2, HTRA2 (Homo sapiens, UniProt O43464).
T2 sequence (O43464 134-458): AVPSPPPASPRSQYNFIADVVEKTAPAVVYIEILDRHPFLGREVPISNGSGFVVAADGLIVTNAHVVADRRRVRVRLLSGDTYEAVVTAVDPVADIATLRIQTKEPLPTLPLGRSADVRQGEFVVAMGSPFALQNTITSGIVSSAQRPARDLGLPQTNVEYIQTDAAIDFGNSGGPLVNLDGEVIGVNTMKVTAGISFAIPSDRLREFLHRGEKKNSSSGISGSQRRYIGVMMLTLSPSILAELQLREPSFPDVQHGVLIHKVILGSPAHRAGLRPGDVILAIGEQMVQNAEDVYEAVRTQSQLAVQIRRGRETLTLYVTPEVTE
Description: HTRA2 activity assay with fluorogenic substrate H2-Opt. It counts as biochemical. The protocol:
as §1, §2, §3

The target in test [3] is T1, HTRA1. Description: HTRA1 activation in human blood samples. Particulars: no method given.
For test [4], the target named is T1, HTRA1. Description: HTRA1 activity in HeLa cells with HTRA1 activity-based probe DS-1-94, fluorescence microscopy. It counts as cell-based. The conditions noted are these: E09 10 μM, DS-1-94 5 μM, 37 °C, 1 hour, FIG. 4. The protocol: To confirm whether HTRA1 activity increases even when cells are treated with E09, HTRA1 activity according to the presence or absence of E09 was identified by treating Hela cells, which are human adenocarcinoma cells, with an HTRA1 activity-based probe (DS-1-94, final concentration of 5 μM) and E09 (HTRA activator, final concentration of 10 μM).
Specifically, the cells treated with the HIRAI activity-based probe (DS-1-94) and E09 (HTRA activator) were maintained in a 37 °C incubator for 1 hour.

Test [5] addresses T1, HTRA1. Nature of the test: HTRA1 enzyme activity on addition of casein, PDZ-opt (GQYYFV) or E09. The conditions noted are these: 10 μM E09 vs 2 μg β-casein or PDZ-opt; 15 minutes at room temperature, measured at 37 °C 3 hours; FIG. 5. It counts as biochemical. The protocol: HTRA activity was measured utilizing E09 and the HTRA activity-based probes synthesized by the method of Example 4.1. Changes in HTRA activity w ere measured for cases in which casein, known as a substrate of an HTRA enzyme, or PDZ-opt (GQYYFV), known as a peptide that activates an HTRA enzyme, was added and a case in which E09 was added.
Specifically, 2 μg of β-casein or PDZ-opt (GQYYFV) or 10 μM of E09 was added to an HTRA1 enzyme by the method of Example 1, the mixture was allowed to stand at room temperature for 15 minutes, and then HTRA1 activity was measured at 37 °C for 3 hours in the same manner as in Example 1, and the results are shown in FIG. 5.

In test [6] the test system is ARPE-19 retinal pigment epithelial cells. Nature of the test: Cobblestone structure by clusterin and ZO-1 staining in NaIO3-induced dry macular degeneration cell model. It counts as cell-based. Particulars: pretreated 24 hours, co-treated with NaIO3 12 hours. Here is the method:
(§4) In order to confirm the preventive or therapeutic effect of compound E09 on age-related macular degeneration (AMD), a dry age-related macular degeneration (AMD)-like cell model induced by treatment with NaIO3 was established.
(§5) Specifically, ARPE-19 retinal pigment epithelial cells were seeded at a density of 1.66× 10^5 cells/cm^2 and cultured for two weeks in a medium containing nicotinamide. Thereafter, the cells were re-seeded onto laminin-coated Transwell inserts.
(§6) After culture for one month in a medium containing nicotinamide, the cells were treated with NaIO3 for 12 hours to induce cell injury (NaIO3-alone treatment group), wherein NaIO3 is commonly used for inducing dry age-related macular degeneration (AMD). Structural changes in the cells were then evaluated by analyzing clusterin and ZO-1. E09 and the HtrA1 inhibitor were dissolved in dimethyl sulfoxide (DMSO) and used for the experiments.
(§7) In order to evaluate the effect of E09 on NaIO3-induced cell injury, E09 was pretreated 24 hours prior to NaIO3 treatment and subsequently co-treated with NaIO3 for 12 hours (E09-treated group).
In addition, under the same conditions, NaIO3 and an HtrA1 inhibitor were administered, and a TUNEL assay was performed to evaluate cytotoxicity.

Test [7] shares this test system. Nature of the test: Cell death by TUNEL assay in NaIO3-induced dry macular degeneration cell model. It counts as cell-based. The conditions noted are these: pretreated 24 hours, co-treated with NaIO3 12 hours, FIG. 7E-H. The protocol:
as §4, §5, §6, §7
In addition, under the same conditions, NaIO3 and an HtrA1 inhibitor were administered, and a TUNEL assay was performed to evaluate cytotoxicity. […]

Test [8] shares this test system. Description: Immunostaining of ApoE and Cathepsin D in three-dimensional long-term culture macular degeneration cell model. Type of test: cell-based. Particulars: ARPE-19, 4.5 months culture; vs control group; FIGS. 9A-C.
Source text: (§8) In order to verify the preventive or therapeutic effect of compound E09 on age-related macular degeneration (AMD) under conditions similar to an in vivo environment, a macular degeneration cell model using a three-dimensional (3D) long-term culture system was established.
(§9) The model was designed to induce apical-basal polarization of ARPE-19 cells and to reproduce the structural and functional differentiation characteristics of retinal pigment epithelium (RPE), as well as pathological drusen accumulation patterns, through nicotinamide-based long-term culture.
as §5
(§10) Subsequently, the medium was replaced every 2-3 days with a medium containing E09 or an HtrA1 inhibitor, and the cells were differentiated for 4.5 months (untreated control group (ctrl), E09-treated group, and HtrA1 inhibitor-treated group).

For test [9] the test system is unchanged. Nature of the test: Cell barrier structure by ZO-1 and clusterin staining in three-dimensional long-term culture macular degeneration cell model. The conditions noted are these: ARPE-19, 4.5 months culture; FIGS. 9D-F. Type of test: cell-based.
Source text: as §8, §9, §5, §10

Test [10] has the same test system. Nature of the test: Holotomography analysis in three-dimensional long-term culture macular degeneration cell model. Type of test: cell-based. The conditions noted are these: ARPE-19, 4.5 months culture; FIGS. 9J-L.
Source text: as §8, §9, §5, §10

Test [11] shares this test system. Description: Microvilli formation in three-dimensional long-term culture macular degeneration cell model. Type of test: cell-based. The conditions noted are these: ARPE-19, 4.5 months culture; FIGS. 9G-I.
Source text: as §8, §9, §5, §10

Test [12] deals with NaIO3-induced mouse macular degeneration model (retina). Nature of the test: NaIO3-induced mouse macular degeneration model, H&E staining and thickness of retina. It counts as in vivo, C57BL/GJ mice. The conditions noted are these: intravitreal injection on Day −1, NaIO3 IV day 0, eyes five days after NaIO3. Here is the method:
Specifically, C57BL/GJ mice (6 weeks old) were acclimated for one week, and on experimental day 0, NaIO3 was administered via intravenous injection (IV) to induce retinal injury. To evaluate drug efficacy, E09 or an HtrA1 inhibitor was pre-administered by intravitreal injection one day prior to NaIO3 administration (Day −1).
Five days after administration of NaIO3, the eyes were enucleated, and the tissues. were fixed and sectioned. Hematoxylin & Eosin (H&E) staining was then performed to observe morphological changes in the retina.
In particular, the structural preservation status and thickness changes of the retinal pigment epithelium (RPE) layer, photoreceptor outer segments (POS), and the outer nuclear layer (ONL) were primarily analyzed.

Test [13] relates to gene sets (transcriptome). Nature of the test: Transcriptome analysis (GSEA) in a pathological model of macular degeneration (AMD). The conditions noted are these: vs control group, FIG. 12 upper left. Here is the method: The collected transcriptome data were analyzed at the gene set level using Gene Set Enrichment Analysis (GSEA).
FIG. 12 is a graph showing the results of GSEA (Gene Set Enrichment Analysis) performed after transcriptome analysis following treatment with Compound E09 or an HTRA1 inhibitor in a pathological model of macular degeneration (AMD).

Each structure is given as a SMILES string.

T1 sequence (Q92743 23-480): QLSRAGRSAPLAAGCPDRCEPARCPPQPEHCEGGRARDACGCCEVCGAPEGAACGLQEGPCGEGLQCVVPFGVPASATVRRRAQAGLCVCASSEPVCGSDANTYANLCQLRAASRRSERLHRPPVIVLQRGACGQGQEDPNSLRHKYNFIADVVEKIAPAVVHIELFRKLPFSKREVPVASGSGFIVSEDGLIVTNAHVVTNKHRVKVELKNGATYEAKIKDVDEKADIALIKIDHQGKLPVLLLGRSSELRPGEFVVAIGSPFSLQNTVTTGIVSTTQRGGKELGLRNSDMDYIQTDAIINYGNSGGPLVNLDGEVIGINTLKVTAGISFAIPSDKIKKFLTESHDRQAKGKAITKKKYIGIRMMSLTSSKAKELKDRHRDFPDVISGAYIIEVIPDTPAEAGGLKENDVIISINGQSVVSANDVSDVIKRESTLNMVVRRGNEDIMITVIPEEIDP

Consider `COC(=O)C1CCC(NC(=O)c2ccc(-c3nc(C)cs3)cc2)(C(=O)OC)CC1` (centres unmarked) [Compound E09, dimethyl 1-(4-(4-methylthiazol-2-yl)benzamido)cyclohexane-1,4-dicarboxylate], for which the “dose dependency of HTRA1 activity” value in [1] (0.01, 0.1, 1, 10, and 100 (M) as printed, signal at 3 hours, FIG. 2) is “activates HTRA1 and HTRA2 in a dose-dependent manner”. In test [1] (Example 1, in words), the “activation ability in HTRA1 (both HTRA1 and HTRA2)” value was “excellent activation ability in both HTRA1 and HTRA2”. The HTRA1 activation entry in [1] (screening, final concentration of 10 μM, H2-OPT 6.25 μM, 37 °C, 3 hours, FIG. 1) is given as “significantly activate HTRA1”. Further, the “dose dependency of HTRA2 activity” value in [2] (0.01, 0.1, 1, 10, and 100 (M) as printed, signal at 3 hours, FIG. 3) was “activates HTRA1 and HTRA2 in a dose-dependent manner”. Moreover, in test [2] (Example 1, in words), the “activation ability in HTRA2 (both HTRA1 and HTRA2)” value was “excellent activation ability in both HTRA1 and HTRA2”. Also, the “HTRA1 activation in human blood samples” value in test [3] is “also activates HTRA1 in human blood samples”. Further, the “fluorescence signal of HTRA1 probe (HTRA1 activity)” value in [4] was “fluorescence signal markedly increased”. Further, in test [5], the “HTRA1 activation compared with casein or PDZ-opt (GQYYFV)” value is on record as “activates the HTRA1 enzyme at room temperature far more significantly than casein or PDZ-opt (GQYYFV)”. In addition, the “structural damage induced by NaIO3 / cobblestone structure” value in test [6] (FIG. 7A-D) is listed as “structural damage induced by NaIO3 was significantly suppressed”. For the same compound, in test [6] (FIG. 7C), the “monolayer structure of the cells” value is “the monolayer structure of the cells was preserved”. Further, in test [7], the “NaIO3-induced cell death (TUNEL assay)” value is “NaIO3-induced cell death was significantly suppressed”. In test [8], the “expression / accumulation of ApoE (drusen marker)” value is “expression levels of these markers tended to decrease compared with the control group” and the “expression / accumulation of cathepsin D (drusen marker)” value is listed as “expression levels of these markers tended to decrease compared with the control group”. Moreover, in test [9], the “ZO-1 and clusterin staining pattern (epithelial barrier)” value is “maintained a continuous and regular staining pattern along the cell boundaries, indicating formation of a robust epithelial barrier structure”. In addition, the “cytoskeletal structure (holotomography)” value in [10] was “a stable cytoskeletal structure was maintained”. Further, the microvilli formation result in test [11] is “increased microvilli development”. Also, in test [12] (FIG. 11A), the “tissue continuity (H&E)” value is recorded as “tissue continuity was well maintained”. Moreover, in [12] (FIG. 11B), the ONL thickness result was “significantly suppressed NaIO3-induced thinning and protected retinal structure”. The “separation of the retinal (RPE-POS) layers (H&E)” value in test [12] (vs DMSO control, FIG. 11A) is on record as “separation of the retinal layers was markedly suppressed”. Also, the “expression of gene sets associated with retinal vascular lesions (retinal telangiectasia and vascular tortuosity)” value in test [13] was “overall tendency toward decreased expression”.
